In brackets after ≈: the same amount, converted by molar mass. One block for each molecule: values may come before it.
Legend:
IDO1 = target: T1, IDO1 (Homo sapiens, UniProt P14902); assay: Enzyme-based IDO1 activity assay; format: biochemical; conditions: for IC50 / Enzymatic assay IC50 (hIDO1): purified human IDO1 enzyme; for IC50: read-out: Enzymatic assay IC50 (hIDO1); for Inhibition ratio (%) @10 μM: 10 μM compound, purified recombinant IDO1
T1 construct: made in house

[1] = Water solubility evaluation (Avdeef–Bucher potentiometric titration); format: physicochemical; conditions: thermodynamic from solid
Description: The aqueous solubility was determined on a Gemini Profiler instrument (pION) by the “goldstandard” Avdeef–Bucher potentiometric titration method[46]^,[47].

HeLa (IDO1) = HeLa (IDO1) (Homo sapiens, UniProt P14902); assay: Cell-based IDO1 activity assay (HeLa kynurenine assay); conditions: IFN-γ stimulated HeLa cells; for EC50: 24 h, read-out: Cellular assay EC50 HeLa (IDO1); for Hill slope of the curves (cellular dose response): Figure 9
Description: After incubation for 24 h, 140 µL of supernatant was mixed with 10 µL of 6.1 N trichloroacetic acid and the mixture was incubated for 30 min at 60 °C. The reaction mixture was then centrifuged for 20 min at 4000 rpm at 0 °C to remove sediments. About 100 µL of the supernatant was mixed with 100 µL of 2% (w/v) p-DMAB in acetic acid and measured at 480 nm. The final DMSO concentration was 0.5%. The data were analysed using Graphpad Prism 6.
The HeLa-based cellular assay is informative for drug development, as it evaluates not only the IDO1 inhibitory effect of the compounds but also their capacity to permeate the cell, their inhibition of tryptophan and kynurenine transport and their potential cytotoxicity. […] In addition, since the inhibition of tryptophan degradation could simply be an effect of cytotoxicity, thus the determination of cell viability was necessary when reporting cellular IC50 values. In the initial work, all of the screened compounds were determined for their cell viability using the classical MTT assy.

HeLa = conditions: Figure 1, literature value; cited from earlier work
SKOV3 = test system: SKOV3; set-up: method as in earlier work; conditions: Figure 1, literature values; 27 (4), 28 (5); cited from earlier work

T1 sequence (P14902 whole entry): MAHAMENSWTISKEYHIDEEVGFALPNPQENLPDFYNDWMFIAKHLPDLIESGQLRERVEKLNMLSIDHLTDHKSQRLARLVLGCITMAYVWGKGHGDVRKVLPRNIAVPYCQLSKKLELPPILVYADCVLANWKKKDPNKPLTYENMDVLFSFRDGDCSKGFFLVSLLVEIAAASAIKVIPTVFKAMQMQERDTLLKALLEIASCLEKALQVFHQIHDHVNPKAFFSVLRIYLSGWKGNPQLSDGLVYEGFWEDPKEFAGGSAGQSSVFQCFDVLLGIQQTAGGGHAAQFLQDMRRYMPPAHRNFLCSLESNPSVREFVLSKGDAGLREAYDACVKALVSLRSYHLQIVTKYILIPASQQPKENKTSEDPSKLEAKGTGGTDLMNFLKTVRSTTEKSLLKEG
Chain of HeLa (IDO1) (P14902 whole entry): as above

Molecule: N#Cc1cnccc1SCC(=O)Nc1ccc(F)cc1 [LBJ-05, 2-((3-Cyanopyridin-4-yl)thio)-N-(4-fluorophenyl)acetamide]
melting point: 232 to 234 °C
IC50 (IDO1): 18 ± 0.13 µM

Molecule: N#Cc1cccnc1SCC(=O)Nc1ccc(F)cc1 [LBJ-03, 2-((3-Cyanopyridin-2-yl)thio)-N-(4-fluorophenyl)acetamide]
solubility [1]: 75 µg/mL (≈ 261 µM)
melting point: 198 to 201 °C
IC50 (IDO1): 9.14 ± 0.38 µM

Molecule: N#Cc1cc2c(nc1SCC(=O)Nc1cc(Cl)cc(Cl)c1)C1CCN2CC1 [LVS-053]
Enzymatic assay IC50 (hIDO1) (IDO1): Not Converged

Molecule: N#Cc1ncccc1SCC(=O)Nc1ccc(F)cc1 [LBJ-06, 2-((2-Cyanopyridin-3-yl)thio)-N-(4-fluorophenyl)acetamide]
melting point: 211 to 213 °C

Molecule: Cc1ccc(C#N)c(SCC(=O)Nc2ccc(F)cc2)n1 [LBJ-07, 2-((3-Cyano-6-methylpyridin-2-yl)thio)-N-(4-fluorophenyl)acetamide]
melting point: 238 to 240 °C
IC50 (IDO1): 20.6 ± 1.12 µM

Molecule: N#Cc1ccncc1SCC(=O)Nc1ccc(F)cc1 [LBJ-04, 2-((4-Cyanopyridin-3-yl)thio)-N-(4-fluorophenyl)acetamide]
melting point: 206 to 209 °C
IC50 (IDO1): 43.6 ± 0.85 µM

Molecule: N#Cc1ccc(C(F)(F)F)nc1SCC(=O)Nc1ccc(F)cc1 [LBJ-08, 2-((3-Cyano-6-(trifluoromethyl)pyridin-2-yl)thio)-N-(4-fluorophenyl)acetamide]
melting point: 201 to 204 °C
IC50 (IDO1): 1.87 ± 0.83 µM

Molecule: NS(=O)(=O)NCCNc1nonc1C(=NO)Nc1ccc(F)c(Br)c1 [Compound 3]
IC50 (HeLa): 0.0071 µM

Molecule: Cc1ccc(NC(=O)CSc2nc(C(F)(F)F)ccc2C#N)cc1 [LBJ-12, 2-((3-Cyano-6-(trifluoromethyl)pyridin-2-yl)thio)-N-(p-tolyl)acetamide]
melting point: 212 to 214 °C
IC50 (IDO1): 17.9 ± 1.28 µM

Molecule: N#Cc1ccccc1SCC(=O)Nc1ccc(F)cc1 [LBJ-02, 2-((2-Cyanophenyl)thio)-N-(4-fluorophenyl)acetamide]
melting point: 215 to 217 °C

Molecule: N#Cc1ccc(C(F)(F)F)nc1SCC(=O)Nc1ccccc1 [LBJ-11, 2-((3-Cyano-6-(trifluoromethyl)pyridin-2-yl)thio)-N-phenylacetamide]
melting point: 230 to 233 °C
IC50 (IDO1): 9.61 ± 0.71 µM

Molecule: Cn1cc(C[C@@H](N)C(=O)O)c2ccccc21 [Compound 1, 1-methyl-D-tryptophan]
IC50 (HeLa): 1500 µM

Molecule: 4-amino-1,2,5-oxadiazole-3-carboximidamide [Compound 6]
IC50 (HeLa): 1 µM

Molecule: N#Cc1ccc(C(F)(F)F)nc1SCC(=O)Nc1ccccc1F [LBJ-09, 2-((3-Cyano-6-(trifluoromethyl)pyridin-2-yl)thio)-N-(2-fluorophenyl)acetamide]
melting point: 208 to 211 °C
IC50 (IDO1): 5.81 ± 1.2 µM

Molecule: N#Cc1cccnc1OCC(=O)Nc1ccc(F)cc1 [LBJ-01, 2-((3-Cyanopyridin-2-yl)oxy)-N-(4-fluorophenyl)acetamide]
melting point: 234 to 236 °C
IC50 (IDO1): 19.5 ± 0.28 µM

Molecule: 2-((3-Cyano-6-(trifluoromethyl)pyridin-2-yl)thio)-N-(p-tolyl)acetamide [LBJ-13]
IC50 (IDO1): 23.6 ± 2.11 µM

Molecule: O=C1CC(c2c[nH]c3ccc(F)cc23)C(=O)N1 (stereo not shown) [Compound 4]
IC50 (SKOV3): 0.07 µM

Molecule: C[C@@H](C(=O)Nc1ccc(Cl)cc1)C1CCC(c2ccnc3ccc(F)cc23)CC1 (stereo partly shown) [Compound 5]
IC50 (SKOV3): 0.0034 µM

Molecule: O=C(CSc1cccc(C(F)(F)F)n1)Nc1ccc(F)c(Cl)c1 [LBJ-14, N-(3-Chloro-4-fluorophenyl)-2-((6-(trifluoromethyl)pyridin-2-yl)thio)acetamide]
melting point: 86 to 88 °C
IC50 (IDO1): 35.7 ± 1.25 µM

More lines, now with the values ahead:

Enzymatic assay IC50 (hIDO1) (IDO1): Not Converged
Molecule: Cc1cc(C)c(C#N)c(SCC(=O)Nc2cccc(C)c2C)n1 [LVS-038]

IC50 (IDO1): 66.2 ± 14.3 µM
Molecule: N#Cc1c(C(F)(F)F)cc(-c2cccs2)nc1SCC(=O)Nc1ccc2ccccc2c1 [LVS-034]

EC50 (HeLa (IDO1)): 7.68 ± 0.27 µM
Hill slope of the curves (cellular dose response) (HeLa (IDO1)): 1.11
IC50 (IDO1): 2.64 ± 0.94 µM
Molecule: CC(C)c1ccc(C#N)c(SCC(=O)Nc2ccc(F)cc2)n1 [LVS-019]

Inhibition ratio (%) @10 μM (IDO1): 2.00 ± 0.28%
Molecule: O=C(Cn1nnnc1-c1ccccc1)c1ccc(Br)cc1 [LVS-030]

IC50 (IDO1): 1.38 ± 0.57 µM
Molecule: Cc1cc(C(F)(F)F)c(C#N)c(SCC(=O)Nc2ncc(Br)cc2Br)n1 [LVS-052]

IC50 (IDO1): 18.4 ± 2.31 µM
Molecule: O=[N+]([O-])c1ccc(Oc2nsnc2N2CCOCC2)cc1 [LVS-018]

Enzymatic assay IC50 (hIDO1) (IDO1): Not Converged
Molecule: COc1cc2c(cc1OC)CN(C(=O)CSc1nc(C)cc(C)c1C#N)CC2 [LVS-051]

Inhibition ratio (%) @10 μM (IDO1): 30.73 ± 0.93%
Molecule: O=C(CSc1nnc2scc(-c3ccc(Cl)cc3)n12)Nc1ccc(F)cc1 [LVS-005]

IC50 (IDO1): 54.7 ± 4.7 µM
Molecule: N#Cc1c(C(F)(F)F)cc(-c2cccs2)nc1SCC(=O)Nc1ccc(F)cc1 [LVS-037]

IC50 (IDO1): 49.3 ± 10 µM
Molecule: N#Cc1cc2c(nc1SCC(=O)Nc1ccc(F)cc1)CCCC2 [LVS-044]

Inhibition ratio (%) @10 μM (IDO1): 4.31 ± 0.04%
Molecule: COc1cccc(NC(=O)CSc2nc(N)c(C#N)cc2C#N)c1 [LVS-008]

IC50 (IDO1): 8.08 ± 1.3 µM
Molecule: Cn1c(COc2ccccc2)c(C#N)c2ccccc21 [LVS-002]

Inhibition ratio (%) @10 μM (IDO1): 9.91 ± 0.65%
Molecule: Cc1ccc(C(=O)CC2(O)C(=O)N(C)c3ccccc32)cc1 (stereo not shown) [LVS-029]

Inhibition ratio (%) @10 μM (IDO1): 3.37 ± 0.04%
Molecule: O=S(=O)(NC1CCCc2ccccc21)c1ccc(Br)cc1 (stereo not shown) [LVS-027]

EC50 (HeLa (IDO1)): 9.4 ± 0.07 µM
Hill slope of the curves (cellular dose response) (HeLa (IDO1)): 0.70
IC50 (IDO1): 8.76 ± 1.74 µM
Molecule: Cc1cc(C(F)(F)F)nc(SCC(=O)Nc2sc3c(c2C#N)CCC3)c1C#N [LVS-048]

Enzymatic assay IC50 (hIDO1) (IDO1): Not Converged
Molecule: CN1CCc2nc(SCC(=O)Nc3ccccc3)c(C#N)cc2C1 [LVS-054]

IC50 (IDO1): 38.5 ± 6.09 µM
Molecule: COc1cccc(-c2ccc(C#N)c(SCC(=O)Nc3ccccc3Cl)n2)c1 [LVS-042]

Enzymatic assay IC50 (hIDO1) (IDO1): Not Converged
Molecule: Cc1nc(SCC(=O)Nc2sc3c(c2C#N)CCC3)c(C#N)c(C)c1C [LVS-046]

Inhibition ratio (%) @10 μM (IDO1): 21.29 ± 0.22%
Molecule: O=C(CS(=O)(=O)c1ccccc1)Nc1ccc(Br)cn1 [LVS-022]

IC50 (IDO1): 14.8 ± 3.14 µM
Molecule: N#Cc1cc2c(nc1SCC(=O)Nc1sc3c(c1C#N)CCCC3)CCCCCC2 [LVS-049]

IC50 (IDO1): 21.2 ± 7.1 µM
Molecule: CCc1nc(SCC(=O)Nc2sc3c(c2C#N)CCC3)c(C#N)cc1C [LVS-047]

Enzymatic assay IC50 (hIDO1) (IDO1): Not Converged
Molecule: Cc1cc(C)c(C#N)c(SCC(=O)Nc2nccs2)n1 [LVS-055]

Enzymatic assay IC50 (hIDO1) (IDO1): Not Converged
Molecule: CN1CCc2nc(SCC(=O)Nc3sc4c(c3C#N)CCCC4)c(C#N)cc2C1 [LVS-050]

IC50 (IDO1): 26 ± 9.64 µM
Molecule: Cc1cc(C)c(C#N)c(SCC(=O)Nc2sc3c(c2C#N)CCC3)n1 [LVS-045]

IC50 (IDO1): 21.7 ± 3.18 µM
Molecule: N#Cc1cc2c(nc1SCC(=O)Nc1nccs1)CCCCC2 [LVS-043]

IC50 (IDO1): 74.7 ± 15.2 µM
Molecule: COc1ccc(-c2ccc(C#N)c(SCC(=O)Nc3ccccc3Br)n2)cc1 [LVS-040]

IC50 (IDO1): 55.1 ± 10.1 µM
Molecule: COc1cccc(-c2ccc(C#N)c(SCC(=O)Nc3cccc(C)c3)n2)c1 [LVS-041]

Inhibition ratio (%) @10 μM (IDO1): 10.22 ± 1.11%
Molecule: Cn1c(=O)c(Sc2ccc(Cl)cc2)c(O)c2ccccc21 [LVS-023]

IC50 (IDO1): 14.2 ± 1.43 µM
Molecule: Cc1sc2nc(SCC(=O)c3ccc(F)cc3)n(N)c(=O)c2c1C [LVS-001]

IC50 (IDO1): 36.6 ± 5.46 µM
Molecule: CCN(CC)C(=O)CSc1nc(C)cc(C)c1C#N [LVS-033]

Inhibition ratio (%) @10 μM (IDO1): 9.65 ± 0.09%
Molecule: O=c1c2c(-c3ccc([N+](=O)[O-])cc3)csc2nc2n1CCC2 [LVS-004]

Inhibition ratio (%) @10 μM (IDO1): 11.62 ± 1.19%
Molecule: Cc1ccc(NC(=O)COc2ccccc2CO)cc1 [LVS-014]

Inhibition ratio (%) @10 μM (IDO1): 0.11 ± 1.98%
Molecule: COc1ccccc1-c1cc(C(=O)O)c2ccccc2n1 [LVS-020]

IC50 (IDO1): 78.7 ± 8.46 µM
Molecule: Cc1cc(C)c(C#N)c(SCC(=O)Nc2sc(C)c(C)c2C#N)n1 [LVS-036]

IC50 (IDO1): 27.6 ± 6.82 µM
Molecule: COCc1cc(C)nc(SCC(=O)Nc2ccc(C)c(C)c2)c1C#N [LVS-035]

Inhibition ratio (%) @10 μM (IDO1): 11.05 ± 0.02%
Molecule: CCOc1ccc(/C=c2\sc3nnc(-c4ccccc4Cl)n3c2=O)cc1 [LVS-015]

Inhibition ratio (%) @10 μM (IDO1): 14.15 ± 0.38%
Molecule: O=S(=O)(c1cccc2cccc(Cl)c12)N1CCCC1 [LVS-013]

IC50 (IDO1): 10.4 ± 1.01 µM
Molecule: Sc1nnc(-c2csc3c2CCCC3)n1Cc1ccccc1 [LVS-032]

EC50 (HeLa (IDO1)): 3.42 ± 0.56 µM
Hill slope of the curves (cellular dose response) (HeLa (IDO1)): 0.69
IC50 (IDO1): 2.57 ± 0.42 µM
Molecule: Cc1cc(C)c(C#N)c(SCC(=O)Nc2ccc(Cl)c(Cl)c2)n1 [LVS-039]

Inhibition ratio (%) @10 μM (IDO1): 15.83 ± 0.18%
Molecule: O=C(Nc1ccc2nsnc2c1)c1ccc(F)cc1 [LVS-006]

Source: PMC6327983, “Discovery of cyanopyridine scaffold as novel indoleamine-2,3-dioxygenase 1 (IDO1) inhibitors through virtual screening and preliminary hit optimisation” (Journal of Enzyme Inhibition and Medicinal Chemistry, 2019)
